These are literature values, as cited in US12096767B2, “Residual disinfectant composition” (Kimberly-Clark Worldwide, Inc., priority 2015, dated 2024).

Structures are written as SMILES.

For the series the following is noted: determined at a temperature of 25° C.

For `O=CC(=O)O` [glyoxylic acid], the pka1 is given as 3.18.
